US8153627B2, “Quinazoline linked pyrrolo[2,1-C][1, 4]benzodiazepine hybrids as potential anticancer agents and process for the preparation thereof” (Council of Scientific & Industrial Research, priority 2008, dated 2012)

What was measured:
[1] = tested on: SW-620; experiment: Cytotoxicity SRB assay, SW-620; type: cell-based, human; conditions: Colon SW-620, 48 h exposure
Procedure: (§1) 5a, 5c and 5d was evaluated for in vitro anticancer activity against sixty human tumor cells derived from nine cancer types leukemia, non-small-cell lung, colon, CNS, melanoma, ovarian, prostate, and breast cancer) as shown in (Table 1 and 2). For the compound, dose response curves for each cell line were measured at a minimum of five concentrations at 10 fold dilutions. A protocol of 48 h continuous drug exposure was used and a sulforhodamine B (SRB) protein assay was used to estimate cell viability or growth. The concentration causing 50% cell growth inhibition (GI50), total cell growth inhibition (TGI 0% growth) and 50% cell death (LC50, −50% growth) compared with the control was calculated.

[2] = tested on: NCI-H226; experiment: Cytotoxicity SRB assay, NCI-H226; type: cell-based, human; conditions: Non-small cell lung NCI-H226, 48 h exposure
Procedure: as §1

[3] = tested on: SK-MEL-5; experiment: Cytotoxicity SRB assay, SK-MEL-5; type: cell-based, human; conditions: Melanoma SK-MEL-5, 48 h exposure
Procedure: as §1

[4] = tested on: 786-0; experiment: Cytotoxicity SRB assay, 786-0; type: cell-based, human; conditions: Renal 786-0, 48 h exposure
Procedure: as §1

[5] = tested on: UACC-62; experiment: Cytotoxicity SRB assay, UACC-62; type: cell-based, human; conditions: Melanoma UACC-62, 48 h exposure
Procedure: as §1

[6] = tested on: UO-31; experiment: Cytotoxicity SRB assay, UO-31; type: cell-based, human; conditions: Renal UO-31, 48 h exposure
Procedure: as §1

[7] = tested on: HCT-116; experiment: Cytotoxicity SRB assay, HCT-116; type: cell-based, human; conditions: Colon HCT-116, 48 h exposure
Procedure: as §1

[8] = tested on: SF-539; experiment: Cytotoxicity SRB assay, SF-539; type: cell-based, human; conditions: CNS SF-539, 48 h exposure
Procedure: as §1

[9] = tested on: NCI-H23; experiment: Cytotoxicity SRB assay, NCI-H23; type: cell-based, human; conditions: Non-small cell lung NCI-H23, 48 h exposure
Procedure: as §1

[10] = tested on: NCI/ADR-RES; experiment: Cytotoxicity SRB assay, NCI/ADR-RES; type: cell-based, human; conditions: Breast NCI/ADR-RES, 48 h exposure
Procedure: as §1

[11] = tested on: HCT-15; experiment: Cytotoxicity SRB assay, HCT-15; type: cell-based, human; conditions: Colon HCT-15, 48 h exposure
Procedure: as §1

[12] = tested on: sixty human tumor cells derived from nine cancer types; experiment: NCI sixty human tumor cell line screen (SRB), all lines / mean graph midpoints; type: cell-based; conditions: for Log10 LC50 mean graph midpoint (MG_MID): 50% cell death; for Log10 LC50 mean graph midpoint (MG_MID) / Log10 GI50 mean graph midpoint (MG_MID) / Log10 TGI mean graph midpoint (MG_MID): human tumor cell lines, 48 h exposure, SRB; for Log10 TGI mean graph midpoint (MG_MID): total cell growth inhibition
Procedure: as §1
The mean graph mid points of log10 TGI and log10 LC50 have shown similar pattern to the log10 GI50 mean graph mid points.

[13] = tested on: U251; experiment: Cytotoxicity SRB assay, U251; type: cell-based, human; conditions: CNS U251, 48 h exposure
Procedure: as §1

[14] = tested on: MDA-MB-231/ATCC; experiment: Cytotoxicity SRB assay, MDA-MB-231/ATCC; type: cell-based, human; conditions: Breast MDA-MB-231/ATCC, 48 h exposure
Procedure: as §1

[15] = tested on: MALME-3M; experiment: Cytotoxicity SRB assay, MALME-3M; type: cell-based, human; conditions: Melanoma MALME-3M, 48 h exposure
Procedure: as §1

[16] = tested on: RPMI-8226; experiment: Cytotoxicity SRB assay, RPMI-8226; type: cell-based, human; conditions: Leukemia RPMI-8226, 48 h exposure
Procedure: as §1

[17] = tested on: CCRF-CEM; experiment: Cytotoxicity SRB assay, CCRF-CEM; type: cell-based, human; conditions: Leukemia CCRF-CEM, 48 h exposure
Procedure: as §1

[18] = tested on: A498; experiment: Cytotoxicity SRB assay, A498; type: cell-based, human; conditions: Renal A498, 48 h exposure
Procedure: as §1

[19] = tested on: OVCAR-3; experiment: Cytotoxicity SRB assay, OVCAR-3; type: cell-based, human; conditions: Ovarian OVCAR-3, 48 h exposure
Procedure: as §1

[20] = tested on: UACC-257; experiment: Cytotoxicity SRB assay, UACC-257; type: cell-based, human; conditions: Melanoma UACC-257, 48 h exposure
Procedure: as §1

[21] = tested on: LOX IMVI; experiment: Cytotoxicity SRB assay, LOX IMVI; type: cell-based, human; conditions: Melanoma LOX IMVI, 48 h exposure
Procedure: as §1

[22] = tested on: TK-10; experiment: Cytotoxicity SRB assay, TK-10; type: cell-based, human; conditions: Renal TK-10, 48 h exposure
Procedure: as §1

[23] = tested on: duplex-form calf thymus DNA (CT-DNA); experiment: Thermal denaturation studies with calf thymus DNA; type: binding; conditions: for Change of DNA melting (ΔTm) over incubation time: 0 hr, 18 hr and 36 hr at 37° C.; for ΔTμ (° C.) after incubation at 37° C. for 0 h / ΔTμ (° C.) after incubation at 37° C. for 18 h: [PBD]:[DNA] molar ratio 1:5, CT-DNA 100 μM, ligand 20 μM, pH 7.00
Procedure: Compounds were subjected to thermal denaturation studies with duplex-form calf thymus DNA (CT-DNA) using an adaptation of a reported procedure. Working solutions in aqueous buffer (10 mM NaH2PO4/Na2HPO4, 1 mM Na2EDTA, pH 7.00+0.01) containing CT-DNA (100 μm in phosphate) and the PBD (20 μm) were prepared by addition of concentrated PBD solutions in DMSO to obtain a fixed [PBD]/[DNA] molar ratio of 1:5. The DNA-PBD solutions were incubated at 37° C. for 0, 18, and 36 h prior to analysis. Samples were monitored at 260 nm using a Beckman DU-7400 spectrophotometer fitted with high performance temperature controller, and heating was applied at 1° C. min^−1 in the 40-90° C. range. DNA helix coil transition temperatures (Tm) were obtained from the maxima in the (dA260)/dT derivative plots. Results are given as the mean±standard deviation from three determinations and are corrected for the effects of DMSO co-solvent using a linear correction term. Drug-induced alterations in DNA melting behaviour are given by: ΔTm=Tm(DNA+PBD)−Tm (DNA alone), where the Tm value for the PBD-free CT-DNA is 69.0±0.01.
The DNA binding activity for these novel C8-linked quinazoline-PBD hybrids has been examined by thermal denaturation studies using calf thymus (CT) DNA. […] Data for 5a-d and DC-81 are included in Table 4 for comparison.

[24] = tested on: M14; experiment: Cytotoxicity SRB assay, M14; type: cell-based, human; conditions: Melanoma M14, 48 h exposure
Procedure: as §1

[25] = tested on: ACHN; experiment: Cytotoxicity SRB assay, ACHN; type: cell-based, human; conditions: Renal ACHN, 48 h exposure
Procedure: as §1

[26] = tested on: NCI-H522; experiment: Cytotoxicity SRB assay, NCI-H522; type: cell-based, human; conditions: Non-small cell lung NCI-H522, 48 h exposure
Procedure: as §1

[27] = tested on: CAKI-1; experiment: Cytotoxicity SRB assay, CAKI-1; type: cell-based, human; conditions: Renal CAKI-1, 48 h exposure
Procedure: as §1

[28] = tested on: HL-60 (TB); experiment: Cytotoxicity SRB assay, HL-60 (TB); type: cell-based, human; conditions: Leukemia HL-60 (TB), 48 h exposure
Procedure: as §1

COc1cc2c(cc1OCCCN1CCN(c3ncnc4ccccc34)CC1)N=C[C@@H]1CCCN1C2=O [Compound 5a]
GI50 [1]: 11.7 µM | GI50 [2]: 10 µM | GI50 [3]: 10 µM | GI50 [4]: 11.8 µM | GI50 [5]: 10 µM | GI50 [6]: 13.2 µM | GI50 [7]: 11.9 µM | GI50 [8]: 12.6 µM | GI50 [9]: 13.9 µM | GI50 [10]: 13.4 µM | GI50 [11]: 27.5 µM | Log10 LC50 mean graph midpoint (MG_MID) [12]: −4.99 | Log10 GI50 mean graph midpoint (MG_MID) [12]: −7.68 | GI50 ([12]; sixty cell lines in nine cell panels, read-out: GI50 against sixty cell lines in nine cell panels): < 0.02 µM | Log10 TGI mean graph midpoint (MG_MID) [12]: −6.66 | GI50 [13]: 10 µM | GI50 [14]: 11.6 µM | GI50 [15]: 18.2 µM | GI50 [16]: 10 µM | GI50 [17]: 12 µM | GI50 [18]: 16.1 µM | GI50 [19]: 10 µM | GI50 [20]: 70.9 µM | GI50 [21]: 10 µM | GI50 [22]: 16.6 µM | Change of DNA melting (ΔTm) over incubation time [23]: gradually increased | ΔTμ (° C.) after incubation at 37° C. for 0 h [23]: 9.2 °C | ΔTμ (° C.) after incubation at 37° C. for 18 h [23]: 10.4 °C | GI50 [24]: 10.1 µM | GI50 [25]: 43.4 µM | GI50 [26]: 10.4 µM | GI50 [27]: 13.6 µM | GI50 [28]: 13 µM

COc1cc2c(cc1OCCCCN1CCN(c3ncnc4ccccc34)CC1)N=C[C@@H]1CCCN1C2=O [Compound 5b]
ΔTμ (° C.) after incubation at 37° C. for 0 h [23]: 9.7 °C | ΔTμ (° C.) after incubation at 37° C. for 18 h [23]: 10.9 °C

COc1cc2c(cc1OCCCCCN1CCN(c3ncnc4ccccc34)CC1)N=C[C@@H]1CCCN1C2=O [Compound 5c]
GI50 [1]: 17.6 µM | GI50 [2]: 17.8 µM | GI50 [3]: 20.9 µM | GI50 [4]: 18.4 µM | GI50 [5]: 15.1 µM | GI50 [6]: 22.1 µM | GI50 [7]: 21 µM | GI50 [8]: 30.3 µM | GI50 [9]: 15.8 µM | GI50 [10]: 17.7 µM | GI50 [11]: 29.7 µM | Log10 LC50 mean graph midpoint (MG_MID) [12]: −4.19 | Log10 GI50 mean graph midpoint (MG_MID) [12]: −5.68 | Log10 TGI mean graph midpoint (MG_MID) [12]: −4.86 | GI50 [13]: 15.8 µM | GI50 [14]: 19.9 µM | GI50 [15]: 24.2 µM | GI50 [16]: 45 µM | GI50 [17]: 32.5 µM | GI50 [18]: 20.1 µM | GI50 [19]: 24.9 µM | GI50 [20]: 22.9 µM | GI50 [21]: 18.2 µM | GI50 [22]: 38.2 µM | Change of DNA melting (ΔTm) over incubation time [23]: gradually increased | ΔTμ (° C.) after incubation at 37° C. for 0 h [23]: 10.3 °C | ΔTμ (° C.) after incubation at 37° C. for 18 h [23]: 11.8 °C | GI50 [24]: 14.5 µM | GI50 [25]: 22 µM | GI50 [26]: 65.3 µM | GI50 [27]: 25.8 µM | GI50 [28]: 65.2 µM

COc1cc2c(cc1OCCCCCCN1CCN(c3ncnc4ccccc34)CC1)N=C[C@@H]1CCCN1C2=O [Compound 5d]
GI50 [1]: 25.9 µM | GI50 [2]: 18.4 µM | GI50 [3]: 23.3 µM | GI50 [4]: 14.9 µM | GI50 [5]: 22.5 µM | GI50 [6]: 15.2 µM | GI50 [7]: 14.6 µM | GI50 [8]: 33.7 µM | GI50 [9]: 22.5 µM | GI50 [10]: 18.7 µM | GI50 [11]: 18.4 µM | Log10 LC50 mean graph midpoint (MG_MID) [12]: −4.96 | Log10 GI50 mean graph midpoint (MG_MID) [12]: −6.49 | Log10 TGI mean graph midpoint (MG_MID) [12]: −5.85 | GI50 [13]: 19.8 µM | GI50 [14]: 14.2 µM | GI50 [15]: 36.2 µM | GI50 [16]: 16.8 µM | GI50 [17]: 13.4 µM | GI50 [18]: 22 µM | GI50 [19]: 26.3 µM | GI50 [20]: 15.9 µM | GI50 [21]: 15 µM | GI50 [22]: 31.4 µM | Change of DNA melting (ΔTm) over incubation time [23]: gradually increased | ΔTμ (° C.) after incubation at 37° C. for 0 h [23]: 10.6 °C | ΔTμ (° C.) after incubation at 37° C. for 18 h [23]: 12.2 °C | GI50 [24]: 18.8 µM | GI50 [25]: 46.1 µM | GI50 [26]: 18.3 µM | GI50 [27]: 12.9 µM | GI50 [28]: 19.5 µM

COc1cc2c(cc1O)N=CC1CCCN1C2=O (centres unmarked) [DC-81, reference compound]
ΔTμ (° C.) after incubation at 37° C. for 0 h [23]: 0.3 °C | ΔTμ (° C.) after incubation at 37° C. for 18 h [23]: 0.7 °C
